Target: PRMT7 (TbPRMT7) (Trypanosoma brucei, UniProt Q582G4)
Sequence (Q582G4 whole entry): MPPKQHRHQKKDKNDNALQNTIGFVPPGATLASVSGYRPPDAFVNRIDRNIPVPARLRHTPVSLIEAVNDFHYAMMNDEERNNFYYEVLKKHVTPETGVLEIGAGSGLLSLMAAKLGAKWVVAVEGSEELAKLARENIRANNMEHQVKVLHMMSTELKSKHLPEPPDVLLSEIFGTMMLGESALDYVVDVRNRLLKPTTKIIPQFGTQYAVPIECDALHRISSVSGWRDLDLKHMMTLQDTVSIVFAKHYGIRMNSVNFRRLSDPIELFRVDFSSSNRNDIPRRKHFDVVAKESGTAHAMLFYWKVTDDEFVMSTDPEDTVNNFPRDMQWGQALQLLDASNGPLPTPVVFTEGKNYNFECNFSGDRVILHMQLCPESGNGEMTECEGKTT

Km: 15.3 ± 0.7 µM
Compound: C[S+](CC[C@H](N)C(=O)O)C[C@H]1O[C@@H](n2nnc3c(N)ncnc32)[C@H](O)[C@@H]1O (stereo partly shown) [8-aza-SAM]

From publication PMC5676521 (Chemical Science, 2017)
